# Target: T1, human mu opioid receptor (Homo sapiens, UniProt P35372)
# T1 construct: purchased Perkin Elmer RBHOMM400UA; host or cells: Chinese Hamster Ovary cells (recombinant expression)
# Assay: Human Mu Opioid Receptor Binding Assay (CHO membranes, 3H-Damgo)
# Settings: read-out: hKi μ
# Experimental: Membranes from Chinese Hamster Ovary cells expressing the human […] opioid receptor (Perkin Elmer #RBHOMM400UA) are homogenized in assay buffer (50 mM Tris, pH 7.5 with 5 mM MgCl2) using a glass tissue grinder, Teflon pestle and a Steadfast Stirrer (Fisher Scientific). The concentration of membranes is adjusted to 300 μg/mL in assay buffer and 100 μL is dispensed into each well of the assay plate, a 96 well round bottom polypropylene plate. Compounds to be tested are solubilized in DMSO (Pierce), 10 mM, then diluted in assay buffer to 6× the desired final concentration. The ligand, ^3H-Damgo (Perkin Elmer #NET-902) is also diluted in assay buffer to 3.6 nM. In a second 96 well round bottom polypropylene plate, known as the premix plate, 60 μL of the 6× compound is combined with 60 μL of 3.6 nM ^3H-Damgo. From this premix plate 50 μL is transferred to the assay plate containing the membranes, in duplicate. The assay plate is incubated for 2 h at room temperature. A GF/C 96 well filter plate (Perkin Elmer #6005174) is pretreated with 0.3% polyethylenimine for 30 min. The contents of the assay plate are filtered through the filter plate using a Packard Filtermate Harvester, and washed 3 times with 0.9% saline that is 4° C. The filter plate is dried, the underside sealed, and 30 μL Microscint20 (Packard #6013621) added to each well. A Topcount-NXT Microplate Scintillation Counter (Packard) is used to measure emitted energies in the range of 2.9 to 35 KeV. […] Nonspecific binding is determined in the presence of 1 μM unlabelled Damgo (Tocris #1171).
# T1 sequence (P35372 whole entry): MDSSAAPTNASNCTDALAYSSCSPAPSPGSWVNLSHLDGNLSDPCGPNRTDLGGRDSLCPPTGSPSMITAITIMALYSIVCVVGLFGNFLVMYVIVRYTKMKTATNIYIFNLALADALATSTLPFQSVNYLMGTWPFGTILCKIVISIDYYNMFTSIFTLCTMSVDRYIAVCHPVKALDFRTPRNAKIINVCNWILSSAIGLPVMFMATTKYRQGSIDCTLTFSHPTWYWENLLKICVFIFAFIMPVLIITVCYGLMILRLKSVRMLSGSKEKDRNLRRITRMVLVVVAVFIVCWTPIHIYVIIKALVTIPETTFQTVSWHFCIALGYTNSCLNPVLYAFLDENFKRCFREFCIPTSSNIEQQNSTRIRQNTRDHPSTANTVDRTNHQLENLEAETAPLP
row,SMILES,Ki [µM]
1,COc1ccc(CN(C(=O)[C@@H](N)Cc2c(C)cc(C(N)=O)cc2C)[C@@H](C)c2nc(-c3cccc(Br)c3)c[nH]2)cc1OC [Cpd 19],0.0182
2,Cc1cc(C(N)=O)cc(C)c1C[C@H](N)C(=O)N(Cc1ccc(C(=O)O)cc1)[C@@H](C)c1nc(-c2cccc3ccccc23)c[nH]1 [Cpd 13],0.0048
3,Cc1cc(O)cc(C)c1C[C@H](N)C(=O)N(CC1CCNCC1)[C@@H](C)c1nc(-c2ccccc2)c[nH]1 [Cpd 16],0.016
4,Cc1cc(C(N)=O)cc(C)c1C[C@H](N)C(=O)N(Cc1ccccc1C#N)[C@@H](C)c1nc(-c2ccccc2)c[nH]1 [Cpd 2],0.0029
5,COc1cccc(CN(C(=O)[C@@H](N)Cc2c(C)cc(O)cc2C)[C@@H](C)c2nc(-c3ccccc3)c[nH]2)c1 [Cpd 33],0.0069
6,COC(=O)c1cc(CN(Cc2nc(-c3ccccc3)c[nH]2)C(=O)[C@@H](N)Cc2c(C)cc(C(N)=O)cc2C)ccc1OC [Cpd 7],0.0068
7,Cc1cc(O)cc(C)c1C[C@H](N)C(=O)N(Cc1nc(-c2ccc(CCC(=O)O)cc2)c(C)[nH]1)C(C)C [Cpd 46],0.035
8,Cc1cc(O)cc(C)c1C[C@H](N)C(=O)N(Cc1nc(-c2cccc(NS(C)(=O)=O)c2)c(C)[nH]1)C(C)C [Cpd 45],0.0012
9,CC(C)[C@@H](c1nc(-c2ccccc2)c[nH]1)N(C(=O)[C@@H](N)Cc1cccc(C(N)=O)c1)C(C)C [Cpd 137],0.445
10,COc1ccc(CN(C(=O)[C@@H](N)Cc2c(C)cc(O)cc2C)[C@@H](C)c2nc(-c3ccccc3)c[nH]2)cc1 [Cpd 32],0.0068
11,COC(=O)c1cccc(CN(C(=O)[C@@H](N)Cc2c(C)cc(C(N)=O)cc2C)[C@@H](C)c2nc(-c3cccc4ccccc34)c[nH]2)c1 [Cpd 10],0.0155
12,COc1ccc(CN(C(=O)[C@@H](N)Cc2c(C)cc(C(N)=O)cc2C)[C@@H](C)c2nc(-c3ccccc3Br)c[nH]2)cc1OC [Cpd 26],0.017
13,COc1cc(Br)c(CN(C(=O)[C@@H](N)Cc2c(C)cc(C(N)=O)cc2C)[C@@H](C)c2nc(-c3ccccc3)c[nH]2)cc1OC [Cpd 229],0.012
14,COC(=O)c1cc(CN(C(=O)[C@@H](N)Cc2c(C)cc(O)cc2C)[C@@H](C)c2nc(-c3ccccc3)c[nH]2)ccc1OC [Cpd 268],0.00579
15,Cc1cc(C(N)=O)cc(C)c1C[C@H](N)C(=O)N(Cc1ccccc1)[C@H](C)c1nc(-c2ccccc2)c[nH]1 [Cpd 113],0.016
16,COc1ccc(CN(C(=O)[C@@H](N)Cc2c(C)cc(C(N)=O)cc2C)[C@@H](C)c2nc(-c3ccccc3C#N)c[nH]2)cc1OC [Cpd 27],0.03
17,Cc1cc(C(N)=O)cc(C)c1C[C@H](N)C(=O)N(Cc1ccccc1)[C@@H](C)c1nc(-c2ccc(C(F)(F)F)cc2)c[nH]1 [Cpd 42],0.0058
18,Cc1cc(C(=O)O)cc(C)c1C[C@H](N)C(=O)N(Cc1ccc(C(=O)O)cc1)[C@@H](C)c1nc(-c2ccccc2)c[nH]1 [Cpd 49],0.048
19,C[C@@H](c1nc(Cc2ccccc2)c[nH]1)N(C)C(=O)[C@@H](N)Cc1ccc(O)cc1 [Cpd 204],0.0077
20,Cc1cc(O)cc(C)c1C[C@H](N)C(=O)N(Cc1ccc(O)c(O)c1)[C@@H](C)c1nc(-c2ccccc2)c[nH]1 [Cpd 15],0.285
21,COC(=O)c1cc(CN(C(=O)[C@@H](N)Cc2ccccc2)[C@@H](C)c2nc(-c3ccccc3)c[nH]2)ccc1OC [Cpd 266],0.069

row,SMILES,Ki [µM]
1,COc1ccc(CN(C(=O)[C@@H](N)Cc2c(C)cc(O)cc2C)[C@@H](C)c2nc(-c3ccccc3)c[nH]2)c(OC)c1 [Cpd 34],0.019
2,COc1ccc(CN(C(=O)[C@@H](N)Cc2c(C)cc(O)cc2C)[C@@H](COCc2ccccc2)c2nc(-c3ccccc3)c[nH]2)cc1OC [Cpd 21],0.0376
3,Cc1cc(O)cc(C)c1C[C@H](N)C(=O)N(Cc1ccc(OCc2ccccc2)c(OCc2ccccc2)c1)[C@@H](C)c1nc(-c2ccccc2)c[nH]1 [Cpd 30],0.034
4,Cc1cc(O)cc(C)c1C[C@H](N)C(=O)N(Cc1nc(C=Cc2ccccc2)c(C)[nH]1)C(C)C [Cpd 38],0.019
5,CN[C@@H](Cc1ccc(OCc2ccccc2)cc1)C(=O)N(Cc1ccc(OC)c(C(=O)O)c1)[C@@H](C)c1nc(-c2ccccc2)c[nH]1 [Cpd 274],> 1
6,COc1ccc(CN(Cc2nc(-c3ccccc3)c[nH]2)C(=O)[C@@H](N)Cc2c(C)cc(O)cc2C)cc1OC [Cpd 35],0.0028
7,Cc1cc(O)cc(C)c1C[C@H](N)C(=O)N(Cc1nc(-c2cccc(OC(F)(F)F)c2)c(C)[nH]1)C(C)C [Cpd 43],0.0069
8,Cc1cc(O)cc(C)c1C[C@H](N)C(=O)N(Cc1nc(-c2ccccc2)c[nH]1)C(c1ccccc1)c1ccccc1 [Cpd 40],0.152
9,Cc1cc(C(N)=O)cc(C)c1C[C@H](N)C(=O)N(C1CCCCC1)[C@H](C)c1nc(-c2ccccc2)c[nH]1 [Cpd 128],0.058
10,Cc1cc(O)cc(C)c1C[C@H](N)C(=O)N(Cc1nc(-c2ccc(CO)cc2)c(C)[nH]1)C(C)C [Cpd 39],0.0009
11,Cc1cc(C(N)=O)cc(C)c1C[C@H](N)C(=O)N(Cc1ccccc1Br)[C@@H](C)c1nc(-c2ccccc2)c[nH]1 [Cpd 3],0.013
12,Cc1cc(O)cc(C)c1C[C@H](N)C(=O)N(Cc1nc(-c2cc(N)cc(C(=O)O)c2)c(C)[nH]1)C(C)C [Cpd 47],0.022
13,Cc1cc(O)cc(C)c1C[C@H](N)C(=O)N(CC(=O)O)Cc1nc(-c2ccccc2)c[nH]1 [Cpd 129],0.0253
14,Cc1[nH]c(CN(C(=O)[C@@H](N)Cc2ccc(O)cc2)C(C)C)nc1-c1cncnc1 [Cpd 132],0.166
15,COc1ccc(CN(C(=O)[C@@H](N)Cc2c(C)cc(C(N)=O)cc2C)[C@@H](C)c2nc(-c3ccccc3C(N)=O)c[nH]2)cc1OC [Cpd 28],0.044
16,COc1ccc(CN(C(=O)[C@@H](N)Cc2c(C)cc(C(N)=O)cc2C)[C@@H](C)c2nc(-c3cccc(C#N)c3)c[nH]2)cc1OC [Cpd 24],0.0093
17,COc1ccc(CN(C(=O)[C@@H](N)Cc2c(C)cc(O)cc2C)[C@H](COCc2ccccc2)c2nc(-c3ccccc3)c[nH]2)cc1OC [Cpd 22],~0.2
18,Cc1cc(O)cc(C)c1C[C@H](N)C(=O)N(Cc1nc(-c2ccc(C(=O)O)c(F)c2)c(C)[nH]1)C(C)C [Cpd 37],0.183
19,COc1ccc(CN(C(=O)[C@@H](N)Cc2c(C)cc(C(N)=O)cc2C)[C@@H](C)c2nc(-c3cccc(C(N)=O)c3)c[nH]2)cc1OC [Cpd 23],0.0343
20,Cc1cc(O)cc(C)c1C[C@H](N)C(=O)N(Cc1nc(-c2ccc(C#N)cc2)c(C)[nH]1)C(C)C [Cpd 41],0.0016
21,Cc1cc(O)cc(C)c1C[C@H](N)C(=O)N(Cc1nc(-c2ccc(OC(F)(F)F)cc2)c(C)[nH]1)C(C)C [Cpd 44],0.0087

# — patent US10213415B2, “Compounds as opioid receptor modulators” (JANSSEN PHARMACEUTICA NV, priority 2004, dated 2019)
